target: T1, Q46 protein aggregates (Homo sapiens, UniProt P42858); test: Q46 Radioligand Binding Assay (RBA), displacement of [^3H3]MK-3328; conditions: 10 nM [^3H3]MK-3328, 5 μM Q46 protein aggregates
T1 construct: fused on or other part: An N-terminal GST tag, cleaved off with thrombin before the assay to trigger aggregation
Experimental: For radioligand binding assays (RBA) GST-Q46 protein was generated based on a previous publication (Scherzinger et al. Cell, Vol. 90, 549-558, Aug. 8, 1997). For experiments 33 μM GST-Q46 was incubated with 150 μg/mL thrombin in assay buffer (150 mM NaCl, 50 mM Tris pH 8.0) and 2 mM CaCl2 for 16 hours at 37° C. Aggregated Q46 was pelleted by centrifugation for 5 minutes at 13,000 rpm in a bench top centrifuge and re-dissolved in the same volume of assay buffer. Test compounds were prepared by titration in DMSO at 11 concentrations from 33 μM to 1 nM. For the RBA, Q46 protein aggregates and test compounds were pre-incubated in assay buffer for 20 minutes at room temperature, in 140 μL/well in a 96-well plate (pp, round bottom). Then, ligand was added in 10 μL/well and incubated for 60 minutes at 37° C. Final assay concentrations were 1 μM to 30 pM test compound, 5 μM Q46 protein (equivalent monomer concentration) and 10 nM ligand [^3H3]MK-3328 (Harrision et al., ACS Med. Chem. Lett., 2 (2011), pp 498-502). Samples were transferred onto GF/B filter plates and washed 2× with 200 μL PBS using a Filtermate Harvester. After drying filter plates for 1 hour at 37° C., the back of the plates was sealed with foil and 30 μl/well scintillation fluid (Packard MicroScint 40) was added, incubated for incubated for 15 minutes in the dark and counted in a TopCount reader. For analysis, replicate data from independent assay plates were normalized towards 0% and 100% inhibition using control wells of vehicle (0% inhibition) and 3 μM unlabelled MK-3328 (100% inhibition). IC50 values were determined with a sigmoidal inhibition model with four variables (top, bottom, slope, IC50) in a global fit using the normalized replicate data.

T1 sequence (P42858 with tags, fused parts or gaps with the stated changes, form open): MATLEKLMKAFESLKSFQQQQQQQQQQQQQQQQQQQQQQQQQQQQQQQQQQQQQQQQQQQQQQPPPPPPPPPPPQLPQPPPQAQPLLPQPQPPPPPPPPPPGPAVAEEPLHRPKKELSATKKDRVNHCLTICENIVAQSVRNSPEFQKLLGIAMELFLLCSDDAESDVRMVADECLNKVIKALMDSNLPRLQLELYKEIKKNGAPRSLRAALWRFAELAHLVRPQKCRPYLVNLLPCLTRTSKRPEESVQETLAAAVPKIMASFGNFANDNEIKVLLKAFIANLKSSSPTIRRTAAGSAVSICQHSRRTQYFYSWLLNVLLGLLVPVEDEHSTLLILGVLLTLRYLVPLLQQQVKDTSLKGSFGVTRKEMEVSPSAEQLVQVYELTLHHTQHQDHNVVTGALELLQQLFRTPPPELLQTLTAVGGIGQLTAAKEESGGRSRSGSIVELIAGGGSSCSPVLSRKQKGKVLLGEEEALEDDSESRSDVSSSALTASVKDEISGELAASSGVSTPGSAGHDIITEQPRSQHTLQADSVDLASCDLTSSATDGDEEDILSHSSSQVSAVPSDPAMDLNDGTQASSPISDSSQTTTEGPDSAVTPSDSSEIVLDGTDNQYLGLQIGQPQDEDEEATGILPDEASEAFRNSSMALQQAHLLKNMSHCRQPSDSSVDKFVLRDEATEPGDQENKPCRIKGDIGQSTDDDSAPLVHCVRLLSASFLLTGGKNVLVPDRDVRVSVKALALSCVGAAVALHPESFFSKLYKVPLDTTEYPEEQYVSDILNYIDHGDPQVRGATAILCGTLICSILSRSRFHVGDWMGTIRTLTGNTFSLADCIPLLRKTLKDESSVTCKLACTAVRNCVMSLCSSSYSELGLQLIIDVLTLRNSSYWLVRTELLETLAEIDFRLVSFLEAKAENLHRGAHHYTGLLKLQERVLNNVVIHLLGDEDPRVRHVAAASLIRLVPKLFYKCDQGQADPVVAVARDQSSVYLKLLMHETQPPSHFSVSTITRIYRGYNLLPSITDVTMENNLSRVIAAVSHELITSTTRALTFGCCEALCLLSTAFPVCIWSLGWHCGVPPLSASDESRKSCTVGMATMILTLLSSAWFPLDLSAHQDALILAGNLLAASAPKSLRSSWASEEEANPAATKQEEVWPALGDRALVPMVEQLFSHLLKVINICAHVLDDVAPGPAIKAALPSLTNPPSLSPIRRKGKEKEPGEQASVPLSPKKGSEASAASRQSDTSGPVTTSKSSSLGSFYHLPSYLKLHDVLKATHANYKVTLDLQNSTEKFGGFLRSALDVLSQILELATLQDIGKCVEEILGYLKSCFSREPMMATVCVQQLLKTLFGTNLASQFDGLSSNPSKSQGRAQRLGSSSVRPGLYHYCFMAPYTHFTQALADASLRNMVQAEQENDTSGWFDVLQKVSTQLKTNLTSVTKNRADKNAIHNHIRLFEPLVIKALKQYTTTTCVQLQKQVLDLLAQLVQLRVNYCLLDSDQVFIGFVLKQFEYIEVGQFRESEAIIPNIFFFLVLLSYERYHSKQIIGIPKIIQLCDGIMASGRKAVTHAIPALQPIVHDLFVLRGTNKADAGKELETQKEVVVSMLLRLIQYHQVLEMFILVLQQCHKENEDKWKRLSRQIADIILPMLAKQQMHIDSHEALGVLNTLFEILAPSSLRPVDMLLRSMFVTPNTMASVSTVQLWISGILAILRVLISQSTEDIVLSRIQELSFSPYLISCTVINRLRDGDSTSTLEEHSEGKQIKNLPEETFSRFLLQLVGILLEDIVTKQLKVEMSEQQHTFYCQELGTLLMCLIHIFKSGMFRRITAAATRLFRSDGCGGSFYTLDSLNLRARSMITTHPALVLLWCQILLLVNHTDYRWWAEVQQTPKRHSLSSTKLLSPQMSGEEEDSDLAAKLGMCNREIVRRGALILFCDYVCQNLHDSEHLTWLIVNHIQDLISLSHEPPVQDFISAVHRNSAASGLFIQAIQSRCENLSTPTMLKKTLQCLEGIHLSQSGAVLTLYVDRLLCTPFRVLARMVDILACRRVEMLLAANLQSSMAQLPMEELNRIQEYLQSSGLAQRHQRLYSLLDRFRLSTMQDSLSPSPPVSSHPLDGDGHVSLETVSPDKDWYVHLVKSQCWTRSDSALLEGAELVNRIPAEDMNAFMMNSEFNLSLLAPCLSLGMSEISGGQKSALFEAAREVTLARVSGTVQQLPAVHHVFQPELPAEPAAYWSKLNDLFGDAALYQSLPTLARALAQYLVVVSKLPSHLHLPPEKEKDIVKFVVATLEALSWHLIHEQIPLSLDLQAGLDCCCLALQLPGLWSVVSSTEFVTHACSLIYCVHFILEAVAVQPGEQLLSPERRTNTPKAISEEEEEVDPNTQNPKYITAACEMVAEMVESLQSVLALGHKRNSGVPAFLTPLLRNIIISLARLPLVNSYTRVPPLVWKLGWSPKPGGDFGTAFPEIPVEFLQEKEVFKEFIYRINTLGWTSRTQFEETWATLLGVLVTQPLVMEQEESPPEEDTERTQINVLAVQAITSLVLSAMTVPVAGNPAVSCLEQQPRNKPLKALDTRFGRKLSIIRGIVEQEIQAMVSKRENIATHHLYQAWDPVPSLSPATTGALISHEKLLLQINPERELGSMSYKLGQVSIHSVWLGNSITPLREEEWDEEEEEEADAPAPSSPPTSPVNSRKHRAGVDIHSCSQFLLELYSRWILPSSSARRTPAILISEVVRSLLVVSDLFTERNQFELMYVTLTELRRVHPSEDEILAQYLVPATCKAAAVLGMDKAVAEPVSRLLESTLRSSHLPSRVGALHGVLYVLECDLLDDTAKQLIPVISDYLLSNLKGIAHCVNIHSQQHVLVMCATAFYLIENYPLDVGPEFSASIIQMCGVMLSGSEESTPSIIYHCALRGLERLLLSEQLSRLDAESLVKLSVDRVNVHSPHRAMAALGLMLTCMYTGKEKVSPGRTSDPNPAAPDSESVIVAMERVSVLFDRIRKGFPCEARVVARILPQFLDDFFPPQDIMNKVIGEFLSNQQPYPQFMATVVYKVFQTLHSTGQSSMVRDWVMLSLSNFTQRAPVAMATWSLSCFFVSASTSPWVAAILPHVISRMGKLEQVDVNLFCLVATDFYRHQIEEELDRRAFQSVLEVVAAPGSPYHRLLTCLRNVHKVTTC

SMILES | IC50
COc1ccc2c(c1)sc1nc(C(=O)Nc3cncnc3)cn12 [10-methoxy-N-(pyrimidin-5-yl)-7-thia-2,5-diazatricyclo[6.4.0.0^2,6]dodeca-1(12),3,5,8,10-pentaene-4-carboxamide] | < 100 nM
COc1ccc2c(c1)sc1nc(C(=O)Nc3ccc(-c4cccnc4)cn3)cn12 [10-methoxy-N-[5-(pyridin-3-yl)pyridin-2-yl]-7-thia-2,5-diazatricyclo[6.4.0.0^2,6]dodeca-1(12),3,5,8,10-pentaene-4-carboxamide] | < 100 nM
CNC(=O)c1ccc(NC(=O)c2cn3c(n2)sc2cc(OC)ccc23)cn1 [10-methoxy-N-[6-(methylcarbamoyl)pyridin-3-yl]-7-thia-2,5-diazatricyclo[6.4.0.0^2,6]dodeca-1(12),3,5,8,10-pentaene-4-carboxamide] | < 100 nM
COc1ccc2c(c1)sc1nc(C(=O)N(C)c3cccnc3)cn12 [10-methoxy-N-methyl-N-(pyridin-3-yl)-7-thia-2,5-diazatricyclo[6.4.0.0^2,6]dodeca-1(12),3,5,8,10-pentaene-4-carboxamide] | 100 to 500 nM
CNCc1cccc(NC(=O)c2cn3c(n2)sc2cc(OC)ccc23)c1 [10-methoxy-N-{3-[(methylamino)methyl]phenyl}-7-thia-2,5-diazatricyclo[6.4.0.0^2,6]dodeca-1(8),3,5,9,11-pentaene-4-carboxamide] | < 100 nM
COc1cncc(NC(=O)c2cn3c(n2)sc2ncc(Br)cc23)c1 [11-bromo-N-(5-methoxypyridin-3-yl)-7-thia-2,5,9-triazatricyclo[6.4.0.0^2,6]dodeca-1(12),3,5,8,10-pentaene-4-carboxamide] | < 100 nM
COc1cnc2sc3nc(C(=O)Nc4ccc(=O)n(C)n4)cn3c2c1 [11-methoxy-N-(1-methyl-6-oxo-1,6-dihydropyridazin-3-yl)-7-thia-2,5,9-triazatricyclo[6.4.0.0^2,6]dodeca-1(12),3,5,8,10-pentaene-4-carboxamide] | < 100 nM
COc1cncc(NC(=O)c2cn3c(n2)sc2ncc(OC)cc23)c1 [11-methoxy-N-(5-methoxypyridin-3-yl)-7-thia-2,5,9-triazatricyclo[6.4.0.0^2,6]dodeca-1(12),3,5,8,10-pentaene-4-carboxamide] | < 100 nM
COc1cncc(NC(=O)c2ccn3c(n2)nc2ccc(-c4cncc(OC)c4)cc23)c1 [N,4-bis(5-methoxypyridin-3-yl)-1,8,10-triazatricyclo[7.4.0.0^2,7]trideca-2(7),3,5,8,10,12-hexaene-11-carboxamide] | < 100 nM
COc1cncc(NC(=O)c2ccn3c(n2)nc2cc(-c4cncc(OC)c4)ccc23)c1 [N,5-bis(5-methoxypyridin-3-yl)-1,8,10-triazatricyclo[7.4.0.0^2,7]trideca-2(7),3,5,8,10,12-hexaene-11-carboxamide] | < 100 nM
COc1ccc2c(c1)sc1nc(C(=O)Nc3ccc4occc4c3)cn12 [N-(1-benzofuran-5-yl)-10-methoxy-7-thia-2,5-diazatricyclo[6.4.0.0^2,6]dodeca-1(12),3,5,8,10-pentaene-4-carboxamide] | < 100 nM
Cn1cc(NC(=O)c2ccn3c(n2)nc2ccccc23)cnc1=O [N-(1-methyl-2-oxo-1,2-dihydropyrimidin-5-yl)-1,8,10-triazatricyclo[7.4.0.0^2,7]trideca-2(7),3,5,8,10,12-hexaene-11-carboxamide] | < 100 nM
Cn1nc(NC(=O)c2ccn3c(n2)nc2ccccc23)ccc1=O [N-(1-methyl-6-oxo-1,6-dihydropyridazin-3-yl)-1,8,10-triazatricyclo[7.4.0.0^2,7]trideca-2(7),3,5,8,10,12-hexaene-11-carboxamide] | < 100 nM
C=CCOc1ccc2c(c1)sc1nc(C(=O)Nc3ccc(=O)n(C)n3)cn12 [N-(1-methyl-6-oxo-1,6-dihydropyridazin-3-yl)-10-(prop-2-en-1-yloxy)-7-thia-2,5-diazatricyclo[6.4.0.0^2,6]dodeca-1(12),3,5,8,10-pentaene-4-carboxamide] | < 100 nM
Cn1cc(NC(=O)c2ccn3c(n2)nc2ccccc23)ccc1=O [N-(1-methyl-6-oxo-1,6-dihydropyridin-3-yl)-1,8,10-triazatricyclo[7.4.0.0^2,7]trideca-2(7),3,5,8,10,12-hexaene-11-carboxamide] | 100 to 500 nM
COc1cc(NC(=O)c2ccn3c(n2)nc2ccccc23)ccn1 [N-(2-methoxypyridin-4-yl)-1,8,10-triazatricyclo[7.4.0.0^2,7]trideca-2(7),3,5,8,10,12-hexaene-11-carboxamide] | < 100 nM
COc1nccc(NC(=O)c2ccn3c(n2)nc2ccccc23)c1C#N [N-(3-cyano-2-methoxypyridin-4-yl)-1,8,10-triazatricyclo[7.4.0.0^2,7]trideca-2(7),3,5,8,10,12-hexaene-11-carboxamide] | < 100 nM

SMILES | IC50
N#Cc1cnccc1NC(=O)c1ccn2c(n1)nc1ccccc12 [N-(3-cyanopyridin-4-yl)-1,8,10-triazatricyclo[7.4.0.0^2,7]trideca-2(7),3,5,8,10,12-hexaene-11-carboxamide] | < 100 nM
COc1ccc2c(c1)nc1nc(C(=O)Nc3ccncc3C#N)ccn12 [N-(3-cyanopyridin-4-yl)-5-methoxy-1,8,10-triazatricyclo[7.4.0.0^2,7]trideca-2(7),3,5,8,10,12-hexaene-11-carboxamide] | < 100 nM
COc1cc(NC(=O)c2ccn3c(n2)nc2ccccc23)cnc1OC [N-(5,6-dimethoxypyridin-3-yl)-1,8,10-triazatricyclo[7.4.0.0^2,7]trideca-2(7),3,5,8,10,12-hexaene-11-carboxamide] | < 100 nM
COc1cncc(NC(=O)c2ccn3c(n2)nc2ccccc23)c1 [N-(5-methoxypyridin-3-yl)-1,8,10-triazatricyclo[7.4.0.0^2,7]trideca-2(7),3,5,8,10,12-hexaene-11-carboxamide] | < 100 nM
COc1cncc(NC(=O)c2cn3c(n2)sc2ccccc23)c1 [N-(5-methoxypyridin-3-yl)-7-thia-2,5-diazatricyclo[6.4.0.0^2,6]dodeca-1(12),3,5,8,10-pentaene-4-carboxamide] | < 100 nM
COc1cncc(NC(=O)c2cn3c(n2)sc2cc(-c4ccccc4)ccc23)c1 [N-(5-methoxypyridin-3-yl)-10-phenyl-7-thia-2,5-diazatricyclo[6.4.0.0^2,6]dodeca-1(12),3,5,8,10-pentaene-4-carboxamide] | < 100 nM
O=C(Nc1ccc(F)nc1)c1ccn2c(n1)nc1ccccc12 [N-(6-fluoropyridin-3-yl)-1,8,10-triazatricyclo[7.4.0.0^2,7]trideca-2(7),3,5,8,10,12-hexaene-11-carboxamide] | < 100 nM
COc1ccc2c(c1)sc1nc(C(=O)Nc3ccc(F)nc3)cn12 [N-(6-fluoropyridin-3-yl)-10-methoxy-7-thia-2,5-diazatricyclo[6.4.0.0^2,6]dodeca-1(12),3,5,8,10-pentaene-4-carboxamide] | < 100 nM
COc1ccc(NC(=O)c2ccn3c(n2)nc2ccccc23)cn1 [N-(6-methoxypyridin-3-yl)-1,8,10-triazatricyclo[7.4.0.0^2,7]trideca-2(7),3,5,8,10,12-hexaene-11-carboxamide] | < 100 nM
O=C(Nc1ccc(=O)[nH]n1)c1ccn2c(n1)nc1ccccc12 [N-(6-oxo-1,6-dihydropyridazin-3-yl)-1,8,10-triazatricyclo[7.4.0.0^2,7]trideca-2(7),3,5,8,10,12-hexaene-11-carboxamide] | < 100 nM
O=C(Nc1ccc(=O)[nH]c1)c1ccn2c(n1)nc1ccccc12 [N-(6-oxo-1,6-dihydropyridin-3-yl)-1,8,10-triazatricyclo[7.4.0.0^2,7]trideca-2(7),3,5,8,10,12-hexaene-11-carboxamide] | < 100 nM
O=C(Nc1cccnc1)c1ccn2c(n1)nc1ccccc12 [N-(pyridin-3-yl)-1,8,10-triazatricyclo[7.4.0.0^2,7]trideca-2(7),3,5,8,10,12-hexaene-11-carboxamide] | > 500 nM
COc1ccc2c(c1)sc1nc(CNc3cccnc3)cn12 [N-({10-methoxy-7-thia-2,5-diazatricyclo[6.4.0.0^2,6]dodeca-1(12),3,5,8,10-pentaen-4-yl}methyl)pyridin-3-amine] | > 500 nM
COc1ccc2c(c1)sc1nc(C(=O)NCCN(C)C)cn12 [N-[2-(dimethylamino)ethyl]-10-methoxy-7-thia-2,5-diazatricyclo[6.4.0.0^2,6]dodeca-1(12),3,5,8,10-pentaene-4-carboxamide] | 100 to 500 nM
COCCOc1cncc(NC(=O)c2ccn3c(n2)nc2ccccc23)c1 [N-[5-(2-methoxyethoxy)pyridin-3-yl]-1,8,10-triazatricyclo[7.4.0.0^2,7]trideca-2(7),3,5,8,10,12-hexaene-11-carboxamide] | < 100 nM
COc1ccc2c(c1)nc1nc(C(=O)Nc3ccc(-n4ccnc4)nc3)ccn12 [N-[6-(1H-imidazol-1-yl)pyridin-3-yl]-5-methoxy-1,8,10-triazatricyclo[7.4.0.0^2,7]trideca-2(7),3,5,8,10,12-hexaene-11-carboxamide] | < 100 nM

Source: patent publication US10765764B2, “Probes for imaging huntingtin protein” (CHDI Foundation, Inc., priority 2015, dated 2020)
